From US6914045B2, “Glycopeptide antibiotics” (Wyeth Holdings Corporation, priority 2001, dated 2005)
≈ marks a conversion by molar mass, not a printed value.

Legend:
Assay in all cases: in vitro antibacterial evaluation, MIC by broth dilution
Type in all cases: cell-based
[1] = tested on: Escherichia coli; conditions: 18 hours at 35° C.
[2] = tested on: Enterococcus sp.; conditions: broth dilution, 18 hours at 35° C.
Outline: (§1)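 MIC = lowest antibiotic concentration preventing visible growth; inoculum 5×10^5 CFU/mL; drug range 64-0.06 μg/mL; Muller-Hinton II […]; NCCLS M7-A2 guidance.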

[3] = tested on: Streptococcus sp.; conditions: broth dilution, 18 hours at 35° C.
Outline: as §1

[4] = tested on: Staphylococcus sp.; conditions: broth dilution, 18 hours at 35° C.
Outline: as §1

CC(c1ccccc1)C1NC(=O)CNC(=O)C(CO)NC(=O)C(C(O)C2CNC(=N)N2C2OC(CO)C(O)C(O)C2O)NC(=O)C(C(O)C2CNC(=N)N2)NC(=O)C(Cc2ccc(OC3OC(CO)C(OC4OC(COCC=Cc5ccccc5)C(O)C(O)C4O)C(O)C3O)cc2)NC1=O (stereo not shown) [Example 242]
MIC Escherichia coli (ATCC 25922) [1]: >64 mg/L
MIC Escherichia coli (GC 4559) [1]: >64 mg/L
MIC Escherichia coli (GC 4560) [1]: 2 mg/L (≈ 1.42 µM)
MIC Enterococcus avium (GC 4558) [2]: 16 mg/L (≈ 11.3 µM)
MIC Enterococcus faecalis (ATCC 29212) [2]: 16 mg/L (≈ 11.3 µM)
MIC Enterococcus faecalis (GC 2242) [2]: 16 mg/L (≈ 11.3 µM)
MIC Enterococcus faecalis (GC 2691) [2]: 16 mg/L (≈ 11.3 µM)
MIC Enterococcus faecalis (GC 3059) [2]: 16 mg/L (≈ 11.3 µM)
MIC Enterococcus faecalis (GC 4552) [2]: 16 mg/L (≈ 11.3 µM)
MIC Enterococcus faecalis (GC 4553) [2]: 16 mg/L (≈ 11.3 µM)
MIC Enterococcus faecalis (GC 4554) [2]: 16 mg/L (≈ 11.3 µM)
MIC Enterococcus faecalis (GC 6189) [2]: 16 mg/L (≈ 11.3 µM)
MIC Enterococcus faecium (GC 2243) [2]: 16 mg/L (≈ 11.3 µM)
MIC Enterococcus faecium (GC 4556) [2]: 16 mg/L (≈ 11.3 µM)
MIC Enterococcus faecium (GC 4557) [2]: 8 mg/L (≈ 5.67 µM)
MIC Enterococcus faecalis (ATCC 29212) ([2]; strain ATCC 29212): 16 mg/L (≈ 11.3 µM)
MIC Enterococcus faecium (GC 2243) ([2]; strain GC 2243): 16 mg/L (≈ 11.3 µM)
MIC Enterococcus faecalis (GC 4552) ([2]; strain GC 4552): 16 mg/L (≈ 11.3 µM)
MIC Enterococcus faecalis (GC 4553) ([2]; strain GC 4553): 16 mg/L (≈ 11.3 µM)
MIC Enterococcus faecalis (GC 4554) ([2]; strain GC 4554): 16 mg/L (≈ 11.3 µM)
MIC Enterococcus faecium (GC 4556) ([2]; strain GC 4556): 16 mg/L (≈ 11.3 µM)
MIC Enterococcus faecium (GC 4557) ([2]; strain GC 4557): 8 mg/L (≈ 5.67 µM)
MIC Enterococcus avium (GC 4558) ([2]; strain GC 4558): 16 mg/L (≈ 11.3 µM)
MIC Enterococcus faecalis (GC 6189) ([2]; strain GC 6189): 16 mg/L (≈ 11.3 µM)
MIC Enterococcus faecalis (GC 2242) ([2]; inoculum 5×10^5 CFU/mL, strain GC 2242): 16 mg/L (≈ 11.3 µM)
MIC Enterococcus faecalis (GC 2691) ([2]; inoculum 5×10^5 CFU/mL, strain GC 2691): 16 mg/L (≈ 11.3 µM)
MIC Enterococcus faecalis (GC 3059) ([2]; inoculum 5×10^5 CFU/mL, strain GC 3059): 16 mg/L (≈ 11.3 µM)
MIC Streptococcus agalactiae (GC 4564) [3]: 2 mg/L (≈ 1.42 µM)
MIC Streptococcus pneumoniae (ATCC 6301) [3]: 1 mg/L (≈ 0.708 µM)
MIC Streptococcus pneumoniae (GC 1894) [3]: 0.5 mg/L (≈ 0.354 µM)
MIC Streptococcus pneumoniae (GC 4565) [3]: 0.5 mg/L (≈ 0.354 µM)
MIC Streptococcus pyogenes (GC 4563) [3]: 2 mg/L (≈ 1.42 µM)
MIC Streptococcus pneumoniae (ATCC 6301) ([3]; inoculum 5×10^5 CFU/mL, strain ATCC 6301): 1 mg/L (≈ 0.708 µM)
MIC Streptococcus pneumoniae (GC 1894) ([3]; inoculum 5×10^5 CFU/mL, strain GC 1894): 0.5 mg/L (≈ 0.354 µM)
MIC Streptococcus pyogenes (GC 4563) ([3]; inoculum 5×10^5 CFU/mL, strain GC 4563): 2 mg/L (≈ 1.42 µM)
MIC Streptococcus agalactiae (GC 4564) ([3]; inoculum 5×10^5 CFU/mL, strain GC 4564): 2 mg/L (≈ 1.42 µM)
MIC Streptococcus pneumoniae (GC 4565) ([3]; inoculum 5×10^5 CFU/mL, strain GC 4565): 0.5 mg/L (≈ 0.354 µM)
MIC Coagulase Negative Staphylococcus (GC 4547) [4]: 8 mg/L (≈ 5.67 µM)
MIC Coagulase Negative Staphylococcus (GC 4548) [4]: 4 mg/L (≈ 2.83 µM)
MIC Coagulase Negative Staphylococcus (GC 4549) [4]: 4 mg/L (≈ 2.83 µM)
MIC Coagulase Negative Staphylococcus (GC 4551) [4]: 16 mg/L (≈ 11.3 µM)
MIC Coagulase Negative Staphylococcus (GC 6257) [4]: 2 mg/L (≈ 1.42 µM)
MIC Staphylococcus aureus (ATCC 29213) [4]: 8 mg/L (≈ 5.67 µM)
MIC Staphylococcus aureus (GC 1131) [4]: 8 mg/L (≈ 5.67 µM)
MIC Staphylococcus aureus (GC 3051) [4]: 8 mg/L (≈ 5.67 µM)
MIC Staphylococcus aureus (GC 3053) [4]: 8 mg/L (≈ 5.67 µM)
MIC Staphylococcus aureus (GC 4541) [4]: 4 mg/L (≈ 2.83 µM)
MIC Staphylococcus aureus (GC 4542) [4]: 4 mg/L (≈ 2.83 µM)
MIC Staphylococcus aureus (GC 4544) [4]: 8 mg/L (≈ 5.67 µM)
MIC Staphylococcus aureus (GC 4545) [4]: 4 mg/L (≈ 2.83 µM)
MIC Staphylococcus aureus-SMITH (GC 4543) [4]: 8 mg/L (≈ 5.67 µM)
MIC Staphylococcus haemolyticus (GC 4546) [4]: 4 mg/L (≈ 2.83 µM)
MIC Staphylococcus aureus (ATCC 29213) ([4]; strain ATCC 29213): 8 mg/L (≈ 5.67 µM)
MIC Staphylococcus aureus (GC 1131) ([4]; strain GC 1131): 8 mg/L (≈ 5.67 µM)
MIC Staphylococcus aureus (GC 3051) ([4]; strain GC 3051): 8 mg/L (≈ 5.67 µM)
MIC Staphylococcus aureus (GC 3053) ([4]; strain GC 3053): 8 mg/L (≈ 5.67 µM)
MIC Staphylococcus aureus (GC 4541) ([4]; strain GC 4541): 4 mg/L (≈ 2.83 µM)
MIC Staphylococcus aureus (GC 4542) ([4]; strain GC 4542): 4 mg/L (≈ 2.83 µM)
MIC Staphylococcus aureus-SMITH (GC 4543) ([4]; strain GC 4543): 8 mg/L (≈ 5.67 µM)
MIC Staphylococcus aureus (GC 4544) ([4]; strain GC 4544): 8 mg/L (≈ 5.67 µM)
MIC Staphylococcus aureus (GC 4545) ([4]; strain GC 4545): 4 mg/L (≈ 2.83 µM)
MIC Staphylococcus haemolyticus (GC 4546) ([4]; strain GC 4546): 4 mg/L (≈ 2.83 µM)
MIC Coagulase Negative Staphylococcus (GC 4547) ([4]; strain GC 4547): 8 mg/L (≈ 5.67 µM)
MIC Coagulase Negative Staphylococcus (GC 4548) ([4]; strain GC 4548): 4 mg/L (≈ 2.83 µM)
MIC Coagulase Negative Staphylococcus (GC 4549) ([4]; strain GC 4549): 4 mg/L (≈ 2.83 µM)
MIC Coagulase Negative Staphylococcus (GC 4551) ([4]; strain GC 4551): 16 mg/L (≈ 11.3 µM)
MIC Coagulase Negative Staphylococcus (GC 6257) ([4]; strain GC 6257): 2 mg/L (≈ 1.42 µM)
